In US11358985B2, “Tripeptide compound, preparation method therefor, and application thereof” (NORTHWEST UNIVERSITY, priority 2014, dated 2022):

Columns and labels:
[1] = target: angiotensin-converting enzyme (ACE) (UniProt P12822); type: biochemical; settings: substrate HHL, 37° C., pH 8.3, hippuric acid at 228 nm
mouse ACE = experiment: In vivo ACE activity test: ACE content in kidney tissue by double antibody sandwich ELISA; design: species or system Kunming mice; settings: for ACE content: male Kunming mice, kidney homogenate, intragastric 0.05 mmol/kg once a day for 7 days, 2 h after final dose
[2] = system: spontaneously hypertensive rats (SHR); experiment: Blood pressure in SHR rats after multiple administrations; type: in vivo, rat
Procedure: (§1) SPF grade male spontaneously hypertensive model rats (SHR) (male, 12 weeks old, body weight 200 g±20 g) were divided into three groups: blank group, control group and sample group, with 6 rats each group. Animals were housed in the Shaanxi Provincial Biomedical Animal Laboratory at the School of Life Sciences of Northwest University at a temperature of 22° C. and a humidity of 50%, with 12 hours light/dark cycle and free to eat and drink water. The SHR rats were trained to adapt to blood pressure measurements after 5 days of adaptation to the environment. Prior to administration, the basal blood pressure of the rats in each group was measured and the systolic blood pressure was between 190±5 mmHg.
The particular measurement steps: the conscious rats were placed in the fixed box of the blood pressure meter. […] After the signal was stabilized, the blood pressure was measured and the 5 readings with a change in blood pressure less than 10 mmHg were recorded, with an interval of 10 seconds. […]
According to the above method and dose, rats were administered intragastrically continuously for 7 days, once a day. Blood pressure was measured 2 hours after administration. After the end of the administration, blood pressure was measured continuously for 7 days, once a day, and the change in blood pressure was recorded.

[3] = system: spontaneously hypertensive rats (SHR); experiment: Blood pressure in SHR rats after one administration (tail pulse indirect pressure measurement); type: in vivo, rat
Procedure: as §1
The systolic blood pressure of the experimental rats was measured by tail pulse indirect pressure measurement. […]
The particular measurement steps: the conscious rats were placed in the fixed box of the blood pressure meter. A heating plate at 30° C. was provided in the bottom of the fixed box, which was preheated for 10 min to expand the local blood vessels. […] After the signal was stabilized, the blood pressure was measured and the 5 readings with a change in blood pressure less than 10 mmHg were recorded, with an interval of 10 seconds. […]

angiotensin-converting enzyme (ACE), sequence (P12822 whole entry): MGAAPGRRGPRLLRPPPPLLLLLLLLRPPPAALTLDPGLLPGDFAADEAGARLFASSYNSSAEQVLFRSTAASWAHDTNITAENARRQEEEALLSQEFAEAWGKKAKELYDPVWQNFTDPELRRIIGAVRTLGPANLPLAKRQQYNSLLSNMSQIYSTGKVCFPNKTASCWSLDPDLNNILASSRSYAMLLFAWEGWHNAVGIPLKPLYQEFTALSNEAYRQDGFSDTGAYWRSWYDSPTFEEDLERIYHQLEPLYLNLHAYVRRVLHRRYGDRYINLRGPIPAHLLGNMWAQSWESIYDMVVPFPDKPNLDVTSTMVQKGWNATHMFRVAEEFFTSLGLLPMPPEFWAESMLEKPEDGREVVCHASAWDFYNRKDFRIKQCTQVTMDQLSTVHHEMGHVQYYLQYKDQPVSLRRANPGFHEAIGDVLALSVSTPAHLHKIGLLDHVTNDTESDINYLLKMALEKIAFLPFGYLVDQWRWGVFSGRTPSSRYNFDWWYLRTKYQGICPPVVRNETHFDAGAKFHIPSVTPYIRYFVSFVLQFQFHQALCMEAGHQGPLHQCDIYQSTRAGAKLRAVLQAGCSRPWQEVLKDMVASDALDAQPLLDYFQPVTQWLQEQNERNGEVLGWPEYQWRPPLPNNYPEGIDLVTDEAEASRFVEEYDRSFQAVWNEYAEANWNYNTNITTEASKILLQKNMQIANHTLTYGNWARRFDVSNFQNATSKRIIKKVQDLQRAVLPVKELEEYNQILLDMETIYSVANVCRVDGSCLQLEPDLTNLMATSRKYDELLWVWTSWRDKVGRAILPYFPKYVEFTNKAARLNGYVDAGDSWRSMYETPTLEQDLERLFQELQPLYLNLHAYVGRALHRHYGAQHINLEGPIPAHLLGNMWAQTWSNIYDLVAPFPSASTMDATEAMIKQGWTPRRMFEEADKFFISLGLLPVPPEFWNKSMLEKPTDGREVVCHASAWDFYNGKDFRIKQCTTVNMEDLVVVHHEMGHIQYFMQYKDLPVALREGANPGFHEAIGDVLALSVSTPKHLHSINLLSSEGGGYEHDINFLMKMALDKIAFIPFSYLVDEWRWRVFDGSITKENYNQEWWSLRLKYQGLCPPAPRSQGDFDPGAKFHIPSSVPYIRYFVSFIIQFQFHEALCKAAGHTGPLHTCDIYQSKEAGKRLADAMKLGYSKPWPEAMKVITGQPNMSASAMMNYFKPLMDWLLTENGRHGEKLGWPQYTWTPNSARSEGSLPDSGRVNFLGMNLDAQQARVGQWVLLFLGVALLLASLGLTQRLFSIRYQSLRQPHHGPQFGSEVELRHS

Compound	IC50 [1] [nM]	ACE content (mouse ACE) [pg/mL]	further results
CC1(C)C2CCC1(C)C(OC(=O)[C@@H]1CCCN1C(=O)[C@@H]1CCCN1C(=O)[C@H](O)Cc1ccc(O)c(O)c1)C2 (stereo in doubt) [Compound 221S-6a]	43 ± 6	76 ± 5	
C[C@H](NC(=O)[C@H](O)Cc1ccc(O)c(O)c1)C(=O)N1CCC[C@H]1C(=O)OC1CC2CCC1(C)C2(C)C (stereo partly drawn) [Compound 221S-1a]	23 ± 9	64 ± 8	dose dependence of effect on arterial systolic pressure ([2]; 7 days intragastric at different doses, 14 days (FIG. 5)): dose-dependent; antihypertensive effect (arterial systolic pressure) compared with captopril ([2]; intragastric once a day for 7 days, followed over 14 days (FIG. 4)): better antihypertensive effect than captopril; dose dependence of antihypertensive effect ([3]; single intragastric administration at different doses, within 6 hours (FIG. 3)): good dose-dependent relationship; antihypertensive effect (arterial systolic pressure) compared with captopril ([3]; single intragastric administration, within 6 hours (FIG. 2, 3)): antihypertensive effect was better than that of captopril; reduction of ACE content compared with captopril (in words) (mouse ACE; intragastric 0.05 mmol/kg, 7 days, summary of Table 8): most significant reduction effect
C[C@H](NC(=O)[C@@H](O)Cc1ccc(O)c(O)c1)C(=O)N1CCC[C@H]1C(=O)OC1CC2CCC1(C)C2(C)C (stereo partly drawn) [Compound 221S-1b]	33 ± 6	78 ± 12	
CC(C)[C@H](NC(=O)[C@H](O)Cc1ccc(O)c(O)c1)C(=O)N1CCC[C@H]1C(=O)OC1CC2CCC1(C)C2(C)C (stereo partly drawn) [Compound 221S-2a]	37 ± 5	87 ± 8	
CC(C)C[C@H](NC(=O)[C@H](O)Cc1ccc(O)c(O)c1)C(=O)N1CCC[C@H]1C(=O)OC1CC2CCC1(C)C2(C)C (stereo partly drawn) [Compound 221S-3a]	27 ± 7	79 ± 7	
CCC(C)[C@H](NC(=O)[C@H](O)Cc1ccc(O)c(O)c1)C(=O)N1CCC[C@H]1C(=O)OC1CC2CCC1(C)C2(C)C (stereo partly drawn) [Compound 221S-4a]	34 ± 7	82 ± 10	
CC(C)(C)[C@H](NC(=O)[C@H](O)Cc1ccc(O)c(O)c1)C(=O)N1CCC[C@H]1C(=O)OC1CC2CCC1(C)C2(C)C (stereo partly drawn) [Compound 221S-5a]	28 ± 9	89 ± 11	
CSCC[C@H](NC(=O)[C@H](O)Cc1ccc(O)c(O)c1)C(=O)N1CCC[C@H]1C(=O)OC1CC2CCC1(C)C2(C)C (stereo partly drawn) [Compound 221S-7a]	78 ± 5	71 ± 9	
CC1(C)C2CCC1(C)C(OC(=O)[C@@H]1CCCN1C(=O)[C@H](Cc1ccccc1)NC(=O)[C@H](O)Cc1ccc(O)c(O)c1)C2 (stereo partly drawn) [Compound 221S-8a]	65 ± 5	80 ± 7	
CC1(C)C2CCC1(C)C(OC(=O)[C@@H]1CCCN1C(=O)CNC(=O)[C@H](O)Cc1ccc(O)c(O)c1)C2 (stereo partly drawn) [Compound 221S-15a]	33 ± 6	83 ± 11	
COc1cc(/C=C/C(=O)N[C@@H](C)C(=O)N2CCC[C@H]2C(=O)OC2CC3CCC2(C)C3(C)C)ccc1O (stereo partly drawn) [Compound 221S-27a]	44 ± 3	82 ± 11	
C[C@H](NC(=O)/C=C/c1ccc(O)c(O)c1)C(=O)N1CCC[C@H]1C(=O)OC1CC2CCC1(C)C2(C)C (stereo partly drawn) [Compound 221S-28a]	29 ± 7	79 ± 8	
C[C@H](NC(=O)Cc1ccc(O)c(O)c1)C(=O)N1CCC[C@H]1C(=O)OC1CC2CCC1(C)C2(C)C (stereo partly drawn) [Compound 221S-29a]	38 ± 5	85 ± 8	
C[C@H](NC(=O)c1ccc(O)c(O)c1)C(=O)N1CCC[C@H]1C(=O)OC1CC2CCC1(C)C2(C)C (stereo partly drawn) [Compound 221S-30a]	35 ± 6	75 ± 8	
C[C@H](NC(=O)c1cc(O)c(O)c(O)c1)C(=O)N1CCC[C@H]1C(=O)OC1CC2CCC1(C)C2(C)C (stereo partly drawn) [Compound 221S-31a]	31 ± 8	71 ± 13	
